We go through 34 compounds from ChEMBL document CHEMBL4483862, “Open-source discovery of chemical leads for next-generation chemoprotective antimalarials” (2018).

The structures appear in SMILES notation.

The assay deals with Plasmodium berghei. Description: Luciferase/luciferin-expressing antifolate-resistant parasites were used to infect a culture of HepG2 cells that were pre-incubated with compounds. Infected hepatocytes emit light due to the luciferase reaction. Assay results are presented as the percent inhibition of light emission compared to control. […]. Format: functional. The note with it: sporozoite; for IC90: read-out: LUCIFERASE INFECTION ASSAY - IC90.

[1] abbreviates: read-out: LUCIFERASE INFECTION ASSAY - IC50.

A word on the IC50: it is the point on the concentration scale where inhibition reaches its midpoint. The IC90 is the point of the concentration-response curve where the effect stands at 90%. Consider `Cc1ccc2ncnc(NCCc3ccccc3)c2c1`, for which the IC90 was 2.82 µM. The IC50 (HEPG2TOX_HILL_SLOPE 0.814, HEPG2TOX_R_SQUARED 0.649, PBLUC_HILL_SLOPE 2.08, PBLUC_R_SQUARED 0.658, read-out: LUCIFERASE INFECTION ASSAY - IC50) is 0.984 µM.
`CC1=NC(C)=C(C#N)C(c2cc(Br)ccc2OC(F)F)C1C#N` (stereo not drawn): the IC90 came out at 4.24 µM. In addition, under “HEPG2TOX_HILL_SLOPE 2.06, HEPG2TOX_R_SQUARED 0.906, PBLUC_HILL_SLOPE 11.5, PBLUC_R_SQUARED 0.189, read-out: LUCIFERASE INFECTION ASSAY - IC50”, the IC50 was 3.51 µM.
With `O=C(Nc1ccc(-c2nc3ccccc3[nH]2)cc1)c1cccc(N2CCCS2(=O)=O)c1`, the IC90 was 9.62 µM. In addition, for the setting “PBLUC_HILL_SLOPE 5.48, 3.67, PBLUC_R_SQUARED 0.355, 0.637, read-out: LUCIFERASE INFECTION ASSAY - IC50”, the IC50 came out at 5.88 µM.
As for `CC(C)(C)c1ccc(NC(=O)c2nc(-c3ccccc3)n(-c3ccccc3)n2)cc1`, the IC90 is more than 10 µM. In addition, the IC50 under setting [1] was more than 10 µM.
With `CCc1ccc(-n2c(SC3CCCCC3NS(=O)(=O)c3ccccc3)nc3ccccc3c2=O)cc1` (stereo not drawn), the IC90 was determined as 4.14 µM. The IC50 (PBLUC_HILL_SLOPE 16.5, PBLUC_R_SQUARED 0.215, read-out: LUCIFERASE INFECTION ASSAY - IC50) came out at 3.63 µM.
`CC(C)(C)c1cc(C(=O)Nc2ccccc2)n(Cc2ccc(Cl)cc2Cl)n1`: the IC90 is more than 8.2 µM. Further, the IC50 (PBLUC_HILL_SLOPE 3.9, PBLUC_R_SQUARED 0.166, read-out: LUCIFERASE INFECTION ASSAY - IC50) stood at 5.99 µM.
As for `S=c1[nH]nc(-c2cccnc2Oc2ccccc2)n1-c1ccc(Cl)c(Cl)c1`, the IC90 is more than 7.95 µM. Further, the IC50 under setting [1] is more than 7.95 µM.
Regarding `COCCNc1nc2cnc(-c3ccc4ccccc4c3)cc2n1C`, the IC90 is more than 10 µM. The IC50 (FFLUC_HILL_SLOPE 5.54, FFLUC_R_SQUARED 0.844, PBLUC_HILL_SLOPE 0.43, PBLUC_R_SQUARED 0.895, read-out: LUCIFERASE INFECTION ASSAY - IC50) worked out at 0.13 µM.
`COc1ccc(-c2cnc3cnc(-c4cccs4)cn23)cn1`: the IC90 is 4.6 µM. Also, where the note is “PBLUC_HILL_SLOPE 13.2, PBLUC_R_SQUARED 0.556, read-out: LUCIFERASE INFECTION ASSAY - IC50”, the IC50 stood at 3.89 µM.
In the case of `COc1ccc(-c2cnc3ccc(NCc4ccc(C)cc4C)nn23)cn1`, the IC90 amounted to 9.01 µM. In addition, the IC50 (HEPG2TOX_HILL_SLOPE 9.76, HEPG2TOX_R_SQUARED 0.857, PBLUC_HILL_SLOPE 10.1, PBLUC_R_SQUARED 0.466, read-out: LUCIFERASE INFECTION ASSAY - IC50) was 7.25 µM.
As to `O=C(CCN1CCN(c2ccccc2)CC1)N/N=C/c1cc(Br)ccc1O`, the IC90 was more than 10 µM. Where the note is “HEPG2TOX_HILL_SLOPE 9.92, HEPG2TOX_R_SQUARED 0.702, PBLUC_HILL_SLOPE 4.41, PBLUC_R_SQUARED 0.46, read-out: LUCIFERASE INFECTION ASSAY - IC50”, the IC50 was found to be 6.08 µM.
Turning to `N#Cc1ccccc1NC(=O)CSc1nc2scc(-c3ccccc3Cl)c2c(=O)n1CCc1ccccc1`, the IC90 worked out at 9.03 µM. In addition, under “FFLUC_HILL_SLOPE 9.25, FFLUC_R_SQUARED 0.857, PBLUC_HILL_SLOPE 5.48, PBLUC_R_SQUARED 0.817, read-out: LUCIFERASE INFECTION ASSAY - IC50”, the IC50 came out at 6.05 µM.
Turning to `O=C(N/N=C/c1cc(Br)ccc1O)c1ccccc1Oc1ccccc1`, the IC90 is 7.69 µM. Moreover, under “HEPG2TOX_HILL_SLOPE 3.72, HEPG2TOX_R_SQUARED 0.537, PBLUC_HILL_SLOPE 21.6, PBLUC_R_SQUARED 0.145, read-out: LUCIFERASE INFECTION ASSAY - IC50”, the IC50 worked out at 6.95 µM.
On to `C=CC/N=c1\scc(-c2ccc(OC(F)F)cc2)n1/N=C/c1ccc(O)cc1O`, for which the IC90 is more than 10 µM. For the same compound, the IC50 (PBLUC_HILL_SLOPE 2.81, PBLUC_R_SQUARED 0.0539, read-out: LUCIFERASE INFECTION ASSAY - IC50) was more than 10 µM.
Consider `Cc1ccc2oc(-c3ccc(C(C)(C)C)cc3)nc2c1`, for which the IC90 was 5.53 µM. For the setting “FFLUC_HILL_SLOPE 3.61, FFLUC_R_SQUARED 0.123, HEPG2TOX_HILL_SLOPE 7.09, HEPG2TOX_R_SQUARED 0.0328, PBLUC_HILL_SLOPE 0.728, PBLUC_R_SQUARED 0.843, read-out: LUCIFERASE INFECTION ASSAY - IC50”, the IC50 is 0.271 µM.
With `CCc1cc(Cl)n2nc(C(=O)OC)nc2n1`, the IC90 was more than 10 µM. The IC50 under setting [1] was more than 10 µM.
For the compound `C=CCNC(=O)NCC(=O)c1cc(C)n(-c2ccc(C(C)C)cc2)c1C`, the IC90 is 3.66 µM. Besides, the IC50 (HEPG2TOX_HILL_SLOPE 1.75, HEPG2TOX_R_SQUARED 0.807, PBLUC_HILL_SLOPE 19, PBLUC_R_SQUARED 0.54, read-out: LUCIFERASE INFECTION ASSAY - IC50) was determined as 3.26 µM.
As for `Cc1ccccc1C(=O)OCC(=O)c1cc(C)n(Cc2ccco2)c1C`, the IC90 turned out to be 3.07 µM. Further, the IC50 (PBLUC_HILL_SLOPE 1.7, PBLUC_R_SQUARED 0.868, read-out: LUCIFERASE INFECTION ASSAY - IC50) amounted to 0.843 µM.
Regarding `Cc1cc(C(=O)CSc2nc3ccccc3c(=O)n2-c2ccc(OC(F)F)cc2)c(C)n1-c1ccc(F)c(Cl)c1`, the IC90 was more than 10 µM. The IC50 (FFLUC_HILL_SLOPE 1.77, FFLUC_R_SQUARED 0.792, PBLUC_HILL_SLOPE 12.5, PBLUC_R_SQUARED 0.0853, read-out: LUCIFERASE INFECTION ASSAY - IC50) was 9.61 µM.
For `O=S(=O)(NC1CCN(c2nn3cc(-c4ccccc4)nc3s2)CC1)c1cccs1`, the IC90 was found to be 3.14 µM. For the same compound, the IC50 (HEPG2TOX_HILL_SLOPE 6.79, HEPG2TOX_R_SQUARED 0.144, PBLUC_HILL_SLOPE 1.24, PBLUC_R_SQUARED 0.735, read-out: LUCIFERASE INFECTION ASSAY - IC50) stood at 0.534 µM.
With `FC(F)(F)c1cccc(Nc2nccc3nc(-c4ccccc4Cl)[nH]c23)c1`, the IC90 is more than 10 µM. In addition, the IC50 (FFLUC_HILL_SLOPE 7.35, FFLUC_R_SQUARED 0.132, HEPG2TOX_HILL_SLOPE 0.352, HEPG2TOX_R_SQUARED 0.695, PBLUC_HILL_SLOPE 1.25, PBLUC_R_SQUARED 0.396, read-out: LUCIFERASE INFECTION ASSAY - IC50) turned out to be 3.07 µM.
Take `COc1ccc(Cl)cc1N1C(=O)/C(=C\c2sccc2C)N=C1SCc1cc(=O)n2ccsc2n1`: the IC90 is more than 10 µM. The IC50 (FFLUC_HILL_SLOPE 14.8, FFLUC_R_SQUARED 0.288, PBLUC_HILL_SLOPE 0.636, PBLUC_R_SQUARED 0.525, read-out: LUCIFERASE INFECTION ASSAY - IC50) amounted to 2.55 µM.
For `CN1/C(=C\C(=O)COC(=O)c2cc3ccccc3cc2O)C(C)(C)c2ccccc21`, the IC90 is more than 10 µM. The IC50 under setting [1] was more than 10 µM.
Regarding `Cc1ccc(-n2c(C)cc(-c3csc(NC(=O)c4cccc(S(=O)(=O)N5CCc6ccccc65)c4)n3)c2C)cc1`, the IC90 was more than 10 µM. The IC50 (FFLUC_HILL_SLOPE 15.8, FFLUC_R_SQUARED 0.357, read-out: LUCIFERASE INFECTION ASSAY - IC50) was more than 10 µM.
On to `COc1ccc(/C=C2\N=C(SCc3cn4ccsc4n3)N(c3cc(C)cc(C)c3)C2=O)cc1`, for which the IC90 was more than 10 µM. Also, the IC50 (HEPG2TOX_HILL_SLOPE 2.87, HEPG2TOX_R_SQUARED 0.677, PBLUC_HILL_SLOPE 15.6, PBLUC_R_SQUARED 0.508, read-out: LUCIFERASE INFECTION ASSAY - IC50) was determined as 9.65 µM.
For the compound `CCC(=O)N1CCC1(C)C(=O)NCc1ccc2c(c1)OCO2` (stereo not drawn), the IC90 is more than 10.8 µM. Besides, the IC50 under setting [1] is more than 10.8 µM.
As for `CC(OC(=O)c1cc2sc3ccccc3c2s1)C(=O)N1CCNC1=O` (stereo not drawn), the IC90 stood at 9.91 µM. In addition, the IC50 (PBLUC_HILL_SLOPE 15.1, PBLUC_R_SQUARED 0.0385, read-out: LUCIFERASE INFECTION ASSAY - IC50) stood at 8.57 µM.
As to `O=C(NC1CC1)c1ccc(-c2cn3c(-c4ccc5ncccc5c4)cnc3cn2)cc1`, the IC90 is more than 8.14 µM. The IC50 (HEPG2TOX_HILL_SLOPE 8.34, HEPG2TOX_R_SQUARED 0.193, PBLUC_HILL_SLOPE 5.05, PBLUC_R_SQUARED 0.479, read-out: LUCIFERASE INFECTION ASSAY - IC50) was determined as 7.19 µM.
On to `COc1cccc(-c2cc3c(Nc4cccnc4)nccc3[nH]2)c1`, for which the IC90 is more than 10 µM. For the same compound, the IC50 (PBLUC_HILL_SLOPE 3.56, PBLUC_R_SQUARED 0.0884, read-out: LUCIFERASE INFECTION ASSAY - IC50) is 9.12 µM.
On to `FC(F)(F)c1cc(Nc2nc(-c3cc(-c4ccc(Cl)cc4Cl)no3)cs2)cc(C(F)(F)F)c1`, for which the IC90 was more than 6.29 µM. Moreover, the IC50 under setting [1] was more than 6.29 µM.
For `COc1cc(NC(=O)N2Cc3cnc(Nc4cccc(N(C)C)c4)nc3C2)cc(OC)c1OC`, the IC90 is more than 7.1 µM. Further, the IC50 under setting [1] is more than 7.1 µM.
As to `CS(=O)(=O)Nc1cccc(-c2cn3c(-c4ccc5c(c4)OCO5)cnc3cn2)c1`, the IC90 is more than 8.08 µM. Where the note is “PBLUC_HILL_SLOPE 1.71, PBLUC_R_SQUARED 0.507, read-out: LUCIFERASE INFECTION ASSAY - IC50”, the IC50 amounted to 6.08 µM.
Turning to `CC1CCN(Cc2ccc(CNC(=O)CCn3cncn3)cc2)CC1`, the concentration for an effect of 90% (IC90) is more than 10 µM. Under setting [1], the IC50 is more than 10 µM.
`CCOc1ccc(-c2nc(CSc3nc(C)nc4sc5c(c34)CCCC5)cs2)cc1OC`: the concentration for an effect of 90% (IC90) was more than 10 µM. In addition, for the setting “FFLUC_HILL_SLOPE 22.7, FFLUC_R_SQUARED 0.174, read-out: LUCIFERASE INFECTION ASSAY - IC50”, the IC50 is more than 10 µM.
